The test system of assay [1] is human lung cancer strain NCI-H441.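 Note: cell proliferation inhibition after four days measured by CellTiter-Glo.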
Assay [2] addresses GDP-bound KRAS wild-type protein (Homo sapiens, UniProt P01116). Put plainly: Binding to KRAS by surface plasmon resonance (SPR), Single Cycle Kinetics. The conditions noted are these: SPR, Single Cycle Kinetics, 1:1 binding model; GDP-bound KRAS wild-type protein; read-out: KRAS KD. For orientation: SPR reads the build-up and loss of mass on a sensor chip optically.
The target of assay [3] is GDP-bound HRAS wild-type protein (Homo sapiens, UniProt P01112). As to the kind of experiment: Binding to HRAS by surface plasmon resonance (SPR), Single Cycle Kinetics. The conditions noted are these: SPR; GDP-bound HRAS wild-type protein vs GDP-bound KRAS wild-type protein; KD ratio class.
Chain of GDP-bound HRAS wild-type protein (P01112 whole entry): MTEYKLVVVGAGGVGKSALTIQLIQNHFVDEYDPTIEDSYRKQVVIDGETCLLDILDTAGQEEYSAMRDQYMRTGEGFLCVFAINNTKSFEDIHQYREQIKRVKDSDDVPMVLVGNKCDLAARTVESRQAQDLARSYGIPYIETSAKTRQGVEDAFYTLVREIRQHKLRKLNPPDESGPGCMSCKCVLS
Assay [4] deals with GDP-bound NRAS wild-type protein (Homo sapiens, UniProt P01111). As to the kind of experiment: Binding to NRAS by surface plasmon resonance (SPR), Single Cycle Kinetics. The conditions noted are these: SPR; GDP-bound NRAS wild-type protein vs GDP-bound KRAS wild-type protein; KD ratio class.
Chain of GDP-bound NRAS wild-type protein (P01111 whole entry): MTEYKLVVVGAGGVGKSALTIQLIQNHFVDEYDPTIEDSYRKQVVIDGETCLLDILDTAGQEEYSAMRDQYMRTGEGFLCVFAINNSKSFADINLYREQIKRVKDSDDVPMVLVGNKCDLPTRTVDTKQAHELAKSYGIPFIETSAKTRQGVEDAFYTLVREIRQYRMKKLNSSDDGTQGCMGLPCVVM

Three compounds from US20240158446A1, “CYCLIC COMPOUND HAVING SELECTIVE INHIBITORY ACTION ON KRAS OVER HRAS AND NRAS” (CHUGAI SEIYAKU KABUSHIKI KAISHA, priority 2021, published 2024) can be followed below.

The structures appear in SMILES notation.

Chain of GDP-bound KRAS wild-type protein (P01116 whole entry): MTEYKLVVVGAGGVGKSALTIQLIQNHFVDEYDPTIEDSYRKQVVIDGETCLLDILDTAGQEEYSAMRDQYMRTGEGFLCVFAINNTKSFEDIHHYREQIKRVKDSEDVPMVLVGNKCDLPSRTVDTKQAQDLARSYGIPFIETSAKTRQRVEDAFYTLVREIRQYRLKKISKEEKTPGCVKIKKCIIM

In general, IC50 refers to the concentration needed to halve the response being measured. Lower therefore signals inhibition by little substance. For orientation: Kd means a measure of binding affinity in units of concentration. As to `CCO[C@@H]1C[C@H]2C(=O)NC3(CCC3)C(=O)N(C)[C@@H](C3CCCC3)C(=O)N(C)[C@H](C(=O)N(C)C)CC(=O)N(C)[C@@H](COC3CC3)C(=O)N[C@@H]([C@@H](C)CC)C(=O)N(C)CC(=O)N(C)[C@H]3C/C=C\CCN(C3=O)[C@@H](Cc3ccc(C(F)(F)F)cc3)C(=O)N(C)CC(=O)N[C@@H](CCc3cc(F)c(C(F)(F)F)c(F)c3)C(=O)N2C1` [PP1268, (2S,8S,12R,14S,20S,23S,27S,30S,36S,38Z)-20-cyclopentyl-27-(cyclopropoxymethyl)-8-[2-[3,5-difluoro-4-(trifluoromethyl)phenyl]ethyl]-12-ethoxy-N,N,4,19,22,26,32,35-octamethyl-30-[(1S)-1-methylpropyl]-3,6,9,15,18,21,25,28,31,34,42-undecaoxo-2-[[4-(trifluoromethyl)phenyl]methyl]spiro[1,4,7,10,16,19,22,26,29,32,35-undecazatricyclo[34.5.1.0^10,14]dotetracont-38-ene-17,1′-cyclobutane]-23-carboxamide], in assay [1], the IC50 amounted to 12.1 nM. Further, the Kd in assay [2] was determined as 0.045 nM. Besides, the “HRAS/KRAS (ratio of KD value for HRAS to KD value for KRAS)” value in assay [3] was “A (a compound having 10 or more and less than 20 is denoted as A)”. Besides, the “NRAS/KRAS (ratio of KD value for NRAS to KD value for KRAS)” value in assay [4] was “A (a compound having 10 or more and less than 20 is denoted as A)”.
For `CCO[C@@H]1C[C@H]2C(=O)NC3(CCC3)C(=O)N(C)[C@@H](C3CCCC3)C(=O)N(C)[C@H](C(=O)N(C)C)CC(=O)N(C)[C@@H](CC)C(=O)N[C@@H](C3CCC3)C(=O)N(C)CC(=O)N(C)[C@H]3C/C=C\CCN(C3=O)[C@@H](Cc3ccc(C(F)(F)F)cc3)C(=O)N(C)CC(=O)N[C@@H](CCc3cc(F)c(C(F)(F)F)c(F)c3)C(=O)N2C1` [PP1269, (2S,8S,12R,14S,20S,23S,27S,30S,36S,38Z)-30-cyclobutyl-20-cyclopentyl-8-[2-[3,5-difluoro-4-(trifluoromethyl)phenyl]ethyl]-12-ethoxy-27-ethyl-N,N,4,19,22,26,32,35-octamethyl-3,6,9,15,18,21,25,28,31,34,42-undecaoxo-2-[[4-(trifluoromethyl)phenyl]methyl]spiro[1,4,7,10,16,19,22,26,29,32,35-undecazatricyclo[34.5.1.0^10,14]dotetracont-38-ene-17,1′-cyclobutane]-23-carboxamide], in assay [1], the IC50 came to 29 nM. Further, the Kd in assay [2] was 0.091 nM. In addition, the “HRAS/KRAS (ratio of KD value for HRAS to KD value for KRAS)” value in assay [3] is “B (a compound having 3 or more and less than 10 is denoted as B)”. For the same compound, in assay [4], the “NRAS/KRAS (ratio of KD value for NRAS to KD value for KRAS)” value is “A (a compound having 10 or more and less than 20 is denoted as A)”.
Turning to `CCO[C@@H]1C[C@H]2C(=O)NC3(CCC3)C(=O)N(C)[C@@H](C3CCCC3)C(=O)N(C)[C@H](C(=O)N(C)C)CC(=O)N(C)[C@@H](CC)C(=O)N[C@@H](C(C)C)C(=O)N(C)CC(=O)N(C)[C@H]3C/C=C\CCN(C3=O)[C@@H](Cc3ccc(C(F)(F)F)cc3)C(=O)N(C)CC(=O)N[C@@H](CCc3cc(F)c(C(F)(F)F)c(F)c3)C(=O)N2C1` [PP1270], 53.5 nM corresponded to half-maximal inhibition in assay [1] (IC50). Moreover, in assay [2], the Kd worked out at 0.13 nM. In assay [3], the “HRAS/KRAS (ratio of KD value for HRAS to KD value for KRAS)” value is “B (a compound having 3 or more and less than 10 is denoted as B)”. Moreover, the “NRAS/KRAS (ratio of KD value for NRAS to KD value for KRAS)” value in assay [4] was “A (a compound having 10 or more and less than 20 is denoted as A)”.
